Counter-ions that a name gives are not always drawn.
Molecular target: recombinant human DHODH (Homo sapiens, UniProt Q02127)
Assay: Endpoint DHODH enzyme assay (coenzyme Q10, DCIP)
Format: biochemical
Parameters: purchased Prospecbio ENZ-642
Conditions: compound at 10 µM
Method: In Supplementary Tables 5 and 6, endpoint assays were performed with 10 nM recombinant human DHODH (#ENZ-642, Prospecbio). The reaction mixture consisted of 624.6 µM DL-dihydroorotic acid, 66.4 µM coenzyme Q10, 66.4 µM 2,6-dichlorophenolindophenol sodium salt (DCIP) (all reagents purchased from Sigma-Aldrich) in enzyme buffer (50 mM Tris-HCl, pH 8.0, 0.1% Triton X-100, 150 mM KCl). Loss in absorbance by DCIP was measured at 595 nm after incubation at RT for 60 min.

[1] = Supplementary Table 5, 20,000 compound library
[2] = Supplementary Table 6, 30,000 compound library

Sequence of recombinant human DHODH (Q02127 31-395 limits assumed): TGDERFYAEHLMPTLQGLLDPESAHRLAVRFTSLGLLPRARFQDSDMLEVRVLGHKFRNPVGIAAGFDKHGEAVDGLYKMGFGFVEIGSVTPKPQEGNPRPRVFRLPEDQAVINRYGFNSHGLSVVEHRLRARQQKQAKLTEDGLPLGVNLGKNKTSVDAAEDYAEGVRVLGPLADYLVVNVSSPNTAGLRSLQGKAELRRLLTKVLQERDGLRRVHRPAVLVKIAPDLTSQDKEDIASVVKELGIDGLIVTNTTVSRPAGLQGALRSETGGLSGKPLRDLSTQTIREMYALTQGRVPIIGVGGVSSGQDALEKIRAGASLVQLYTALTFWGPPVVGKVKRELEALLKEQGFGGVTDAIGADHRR

Structure (SMILES)	remaining activity at 10 µM [2] [%]	also measured
COc1cccc(-c2noc(-c3ccc(N4C[C@H]5CC[C@H]4C5)nc3)n2)c1OC (relative stereo) [compound 75901793, (1S*,4S*)-2-{5-[3-(2,3-dimethoxyphenyl)-1,2,4-oxadiazol-5-yl]-2-pyridinyl}-2-azabicyclo[2.2.1]heptane]	–	remaining DHODH activity (%) Average [1]: 5.94%
Cc1cccn(CC(=O)c2ccc(-c3ccccc3)cc2)c1=N [compound 5120580, 1-(4-biphenylyl)-2-(2-imino-3-methyl-1(2H)-pyridinyl)ethanone hydrobromide]	19.2	–
O=C(Nc1ccc2ccccc2c1)C12CC3CC(CC(C3)C1)C2 [compound 5135537, N-2-naphthyl-1-adamantanecarboxamide]	–	remaining activity at 10 µM [1]: 32%
COCCOC(=O)Nc1nc2sc3c(c2s1)CCCC3 [compound 5175570, 2-methoxyethyl 5,6,7,8-tetrahydro[1]benzothieno[2,3-d][1,3]thiazol-2-ylcarbamate]	101	–
CCN(CC)c1ccc2cc(-c3nc4ccccc4n3C)c(=O)oc2c1 [compound 5213776, 7-(diethylamino)-3-(1-methyl-1H-benzimidazol-2-yl)-2H-chromen-2-one]	96.8	–
CCN(CC)c1ccc2cc(-c3nc4ccccc4o3)c(=O)oc2c1 [compound 5213777, 3-(1,3-benzoxazol-2-yl)-7-(diethylamino)-2H-chromen-2-one]	92.1	–
COc1ccccc1NC1=CC(=O)CC(c2ccccc2)C1 (stereo not shown) [compound 5220809, 3-[(2-methoxyphenyl)amino]-5-phenyl-2-cyclohexen-1-one]	100	–
O=C1NC(c2ccc3ccccc3c2)Nc2sc3c(c21)CCCC3 (stereo not shown) [compound 5232020, 2-(2-naphthyl)-2,3,5,6,7,8-hexahydro[1]benzothieno[2,3-d]pyrimidin-4(1H)-one]	43.5	–
O=C1C(O)=C(c2ccc(-c3ccccc3)cc2)C(=O)c2ccccc21 [compound 5248918, 2-(4-biphenylyl)-3-hydroxynaphthoquinone]	–	remaining DHODH activity (%) Average [2]: -1.54%
O=C(NN=Cc1ccc(Br)cc1)C1COc2ccccc2O1 (stereo not shown) [compound 5249701, N'-(4-bromobenzylidene)-2,3-dihydro-1,4-benzodioxine-2-carbohydrazide]	100	–
CCOC(=O)c1c(-c2ccccc2)csc1NC(=O)c1cc(OC)c(OC)c(OC)c1 [compound 5264537, ethyl 4-phenyl-2-[(3,4,5-trimethoxybenzoyl)amino]-3-thiophenecarboxylate]	–	remaining activity at 10 µM [1]: 82.9%
Brc1ccc2[nH]c3c(c2c1)CCCC3NCCc1ccccc1 (stereo not shown) [compound 5265927, 6-bromo-N-(2-phenylethyl)-2,3,4,9-tetrahydro-1H-carbazol-1-amine hydrochloride]	55.7	–
Oc1ccccc1C=Nc1ccc2cc3ccc(N=Cc4ccccc4O)cc3nc2c1 [compound 5267938, 2,2'-[3,6-acridinediylbis(nitrilomethylylidene)]diphenol]	–	remaining DHODH activity (%) Average [2]: 98.57%
COc1ccccc1N1CCN(C(=O)c2ccc(Cl)c([N+](=O)[O-])c2)CC1 [compound 5276937, 1-(4-chloro-3-nitrobenzoyl)-4-(2-methoxyphenyl)piperazine]	97.5	–
COc1ccccc1N1C(=O)C(=C2C(=O)Nc3ccc(Br)cc32)SC1=S [compound 5284467, 5-bromo-3-[3-(2-methoxyphenyl)-4-oxo-2-thioxo-1,3-thiazolidin-5-ylidene]-1,3-dihydro-2H-indol-2-one]	–	remaining DHODH activity (%) Average [2]: 98.93%
Nc1cccc2c1C(=O)c1cccc(NC(=O)c3ccccc3)c1C2=O [compound 5301107, N-(5-amino-9,10-dioxo-9,10-dihydro-1-anthracenyl)benzamide]	100	–
Cc1ccc2[nH]c3c(c2c1)CCCC3NC1CCCCC1 (stereo not shown) [compound 5303009, N-cyclohexyl-6-methyl-2,3,4,9-tetrahydro-1H-carbazol-1-amine]	12.6	–
O=C(NN=CC(Br)=Cc1ccccc1)c1n[nH]c2c1CCC2 [compound 5313702, N'-(2-bromo-3-phenyl-2-propen-1-ylidene)-1,4,5,6-tetrahydrocyclopenta[c]pyrazole-3-carbohydrazide]	–	remaining DHODH activity (%) Average [2]: 92.49%
Cc1ccccc1C=Nc1ccccc1C(N)=O [compound 5320101, 2-[(2-methylbenzylidene)amino]benzamide]	101	–
NC(=O)c1ccccc1N=Cc1cccc(Cl)c1 [compound 5321611, 2-[(3-chlorobenzylidene)amino]benzamide]	97.6	–
O=c1c(Cl)c(Cl)cnn1-c1ccc(Cl)c(C(F)(F)F)c1 [compound 5344759, 4,5-dichloro-2-[4-chloro-3-(trifluoromethyl)phenyl]-3(2H)-pyridazinone]	98.8	–
O=C(NN=Cc1ccc(O)cc1)c1cc(-c2ccccc2)nc2ccccc12 [compound 5347717, N'-(4-hydroxybenzylidene)-2-phenyl-4-quinolinecarbohydrazide]	8.96	–
O=C(Nc1cc(Cl)ccc1Cl)c1ccc([N+](=O)[O-])o1 [compound 5351342, N-(2,5-dichlorophenyl)-5-nitro-2-furamide]	–	remaining activity at 10 µM [1]: 90.4%
COc1ccc(S(=O)(=O)Nc2ccc(I)cc2C)cc1 [compound 5351654, N-(4-iodo-2-methylphenyl)-4-methoxybenzenesulfonamide]	99.2	–
CCc1ccc(NC(=O)c2ccc([N+](=O)[O-])o2)cc1 [compound 5351720, N-(4-ethylphenyl)-5-nitro-2-furamide]	–	remaining activity at 10 µM [1]: 73.5%
COc1ccc(Cl)cc1NC(=O)c1ccc([N+](=O)[O-])o1 [compound 5356839, N-(5-chloro-2-methoxyphenyl)-5-nitro-2-furamide]	–	remaining activity at 10 µM [1]: 83.8%
Cc1ccc2[nH]c3c(c2c1)CCCC3NC=C1C(=O)CC(C)(C)CC1=O (stereo not shown) [compound 5666613, 5,5-dimethyl-2-{[(6-methyl-2,3,4,9-tetrahydro-1H-carbazol-1-yl)amino]methylene}-1,3-cyclohexanedione]	–	remaining DHODH activity (%) Average [2]: 92.20%
COc1ccc(CC(C)NC2CCCc3c2[nH]c2ccc([N+](=O)[O-])cc32)cc1OC (stereo not shown) [compound 5781442, N-[2-(3,4-dimethoxyphenyl)-1-methylethyl]-6-nitro-2,3,4,9-tetrahydro-1H-carbazol-1-amine]	78.3	–

The next lines start with results.

remaining activity at 10 µM [2] [%]	Structure (SMILES)	also measured
101	c1ccc(NN=C2CCc3ccccc3N2)cc1 [compound 5373649, 3,4-dihydro-2(1H)-quinolinone phenylhydrazone hydrochloride]	–
58.2	NN=C1CCCc2c1[nH]c1ccc(Br)cc21 [compound 5373779, 6-bromo-2,3,4,9-tetrahydro-1H-carbazol-1-one hydrazone]	–
100	Cc1ccc(C=NNC(=O)c2c(C)nc3ccc(Cl)cn23)cc1 [compound 5378429, 6-chloro-2-methyl-N'-(4-methylbenzylidene)imidazo[1,2-a]pyridine-3-carbohydrazide]	–
98.4	Cc1ccc(OCC(=O)NN=Cc2ccc(-c3ccc(Br)cc3)o2)cc1 [compound 5472837, N'-{[5-(4-bromophenyl)-2-furyl]methylene}-2-(4-methylphenoxy)acetohydrazide]	–
98	O=C(NN=Cc1cccc(Oc2ccccc2)c1)c1cccc([N+](=O)[O-])c1 [compound 5545710, 3-nitro-N'-(3-phenoxybenzylidene)benzohydrazide]	–
78.1	Cc1ccc(C=NNC(=O)COc2ccccc2Br)c(C)c1 [compound 5554099, 2-(2-bromophenoxy)-N'-(2,4-dimethylbenzylidene)acetohydrazide]	–
42.5	COc1ccc(CNc2ccc(Br)c(C)c2)cc1Br [compound 5561538, (3-bromo-4-methoxybenzyl)(4-bromo-3-methylphenyl)amine]	–
98.4	O=c1[nH]c(C=Cc2ccccc2)nc2sc3c(c12)CCCC3 [compound 5625039, 2-(2-phenylvinyl)-5,6,7,8-tetrahydro[1]benzothieno[2,3-d]pyrimidin-4(3H)-one]	–
68.4	Cn1c2ccccc2n2c(C(O)C(Cl)(Cl)Cl)c(-c3ccccc3)nc12 (stereo not shown) [compound 5650027, 2,2,2-trichloro-1-(9-methyl-2-phenyl-9H-imidazo[1,2-a]benzimidazol-3-yl)ethanol]	–
48.5	O=C1Nc2ccccc2C1=CNC1CCCc2c1[nH]c1ccccc21 (stereo not shown) [compound 5666718, 3-[(2,3,4,9-tetrahydro-1H-carbazol-1-ylamino)methylene]-1,3-dihydro-2H-indol-2-one]	–
71	O=C(Nc1nc2ccccc2s1)C1c2ccccc2Oc2ccccc21 [compound 5704541, N-1,3-benzothiazol-2-yl-9H-xanthene-9-carboxamide]	–
66.1	COc1ccc2c(c1)c(C=Cc1nc3ccccc3c(=O)[nH]1)c(C)n2C [compound 5705453, 2-[2-(5-methoxy-1,2-dimethyl-1H-indol-3-yl)vinyl]-4(3H)-quinazolinone]	–
82.5	CN(C)c1ccc(C=Cc2nc3ccccc3c(=O)[nH]2)cc1 [compound 5705506, 2-{2-[4-(dimethylamino)phenyl]vinyl}-4(3H)-quinazolinone]	–
96.8	CCOc1ccc(S(=O)(=O)Nc2cc(Br)c3oc(C)c(C(C)=O)c3c2)cc1 [compound 5754791, N-(3-acetyl-7-bromo-2-methyl-1-benzofuran-5-yl)-4-ethoxybenzenesulfonamide]	–
59.6	O=[N+]([O-])c1ccc2[nH]c3c(c2c1)CCCC3NC1CCN(CCc2ccccc2)CC1 (stereo not shown) [compound 5781441, 6-nitro-N-[1-(2-phenylethyl)-4-piperidinyl]-2,3,4,9-tetrahydro-1H-carbazol-1-amine]	–

Source: paper PMC5856786, “A DHODH inhibitor increases p53 synthesis and enhances tumor cell killing by p53 degradation blockage” (Nature Communications, 2018)
